Measured values published in publication PMC3871618 (PLoS ONE, 2013).

What was measured:
ABCB1 [1] = biological target: T1, ABCB1 (Homo sapiens, UniProt P08183); experiment: ABCB1-ATPase inhibition assay (verapamil-stimulated), Sf9 membranes; assay type: biochemical; set-up: purchased Solvo Biotechnology (Szeged, Hungary); host or cells: Sf9 insect cell membranes; details: 140 nM to 300 µM
Procedure: (§1) The drug efflux function of ABCB1 is linked to hydrolysis of ATP by ATPase, which is stimulated in the presence of ABCB1 substrates. In the activation assay, transported substrates can stimulate baseline vanadate-sensitive ATPase activity, whereas in the inhibition assay, which is carried out in the presence of a known activator of the transporter, inhibitors may reduce the maximal vanadate-sensitive ATPase activity. ATPase activity was measured by assessing the amount of phosphate liberated from ATP by the ABCB1 transporter using the […] ATPase kit for ABCB1 according to the manufacturer’s instructions. For this purpose, Sf9 cell membranes (4 µg protein per well) were mixed with each of the test compounds (singly) in solutions with concentrations ranging from 140 nM to 300 µM, then incubated at 37°C for 10 min in the presence or absence of 1.2 mM sodium orthovanadate. The reaction was started by adding 10 mM ATP solution (magnesium salt) to the reaction mixture, stopped 10 min later, and the absorbance at 590 nm was measured after a further 30 min incubation (GeniosPlus apparatus; Tecan, Männedorf, Switzerland). The ATPase activity in each sample was determined as the difference in liberated amounts of phosphate measured in the presence and absence of 1.2 mM sodium orthovanadate. Phosphate standards were prepared in each plate and verapamil served as a positive control for ABCB1 stimulation. The results are expressed as vanadate-sensitive ATPase activities.

ABCB1 [2] = biological target: T1, ABCB1; experiment: HOE (Hoechst 33342) accumulation in MDCKII-ABCB1 cells; assay type: cell-based; set-up: expressed in transfected cells; host or cells: MDCKII (canine kidney) cells transduced with human ABCB1, from Prof; Piet Borst and Dr. Alfred Schinkel (The Netherlands Cancer Institute); details: human, probe Hoechst 33342 (HOE), 8 µM, CDKi applied at their respective IC50 concentrations, % as strongly as LY, read-out: Inhibition of HOE efflux relative to LY
Procedure: (§2) To investigate the inhibitory activity of CDKi on ABCB1, the intracellular accumulation of HOE, a fluorescent ABCB1 substrate, was examined in both MDCKII-ABCB1 and MDCKII parent cell lines in the presence and absence of the tested compounds. The reduction in fluorescence intensity in ABCB1-transduced cells indicates the efflux activity of the ABCB1 transporter, its inhibition increases HOE accumulation and thus the intracellular fluorescence.
(§3) The assay was conducted as previously described and optimized for application in ABCB1-expressing cells. Briefly, MDCKII-ABCB1 and MDCKII parent cells were seeded at 5×10^4 cells per well on a 96-well culture plate and used for accumulation experiments after 24 h cultivation. The medium was removed and cells were washed twice with prewarmed phosphate buffered saline (PBS) at pH 7.4.

ABCB1 transporter [3] = biological target: T2, ABCB1 transporter (Homo sapiens, UniProt P08183); experiment: DNR accumulation in MDCKII-ABCB1 cells (flow cytometry), normalized to parental MDCKII; assay type: cell-based; details: 2 µM DNR
T2 construct: expressed in transfected cells; host or cells: MDCKII (canine kidney) cells transduced with human ABCB1, from Prof; Piet Borst and Dr. Alfred Schinkel (The Netherlands Cancer Institute)
T2 sequence (P08183 whole entry): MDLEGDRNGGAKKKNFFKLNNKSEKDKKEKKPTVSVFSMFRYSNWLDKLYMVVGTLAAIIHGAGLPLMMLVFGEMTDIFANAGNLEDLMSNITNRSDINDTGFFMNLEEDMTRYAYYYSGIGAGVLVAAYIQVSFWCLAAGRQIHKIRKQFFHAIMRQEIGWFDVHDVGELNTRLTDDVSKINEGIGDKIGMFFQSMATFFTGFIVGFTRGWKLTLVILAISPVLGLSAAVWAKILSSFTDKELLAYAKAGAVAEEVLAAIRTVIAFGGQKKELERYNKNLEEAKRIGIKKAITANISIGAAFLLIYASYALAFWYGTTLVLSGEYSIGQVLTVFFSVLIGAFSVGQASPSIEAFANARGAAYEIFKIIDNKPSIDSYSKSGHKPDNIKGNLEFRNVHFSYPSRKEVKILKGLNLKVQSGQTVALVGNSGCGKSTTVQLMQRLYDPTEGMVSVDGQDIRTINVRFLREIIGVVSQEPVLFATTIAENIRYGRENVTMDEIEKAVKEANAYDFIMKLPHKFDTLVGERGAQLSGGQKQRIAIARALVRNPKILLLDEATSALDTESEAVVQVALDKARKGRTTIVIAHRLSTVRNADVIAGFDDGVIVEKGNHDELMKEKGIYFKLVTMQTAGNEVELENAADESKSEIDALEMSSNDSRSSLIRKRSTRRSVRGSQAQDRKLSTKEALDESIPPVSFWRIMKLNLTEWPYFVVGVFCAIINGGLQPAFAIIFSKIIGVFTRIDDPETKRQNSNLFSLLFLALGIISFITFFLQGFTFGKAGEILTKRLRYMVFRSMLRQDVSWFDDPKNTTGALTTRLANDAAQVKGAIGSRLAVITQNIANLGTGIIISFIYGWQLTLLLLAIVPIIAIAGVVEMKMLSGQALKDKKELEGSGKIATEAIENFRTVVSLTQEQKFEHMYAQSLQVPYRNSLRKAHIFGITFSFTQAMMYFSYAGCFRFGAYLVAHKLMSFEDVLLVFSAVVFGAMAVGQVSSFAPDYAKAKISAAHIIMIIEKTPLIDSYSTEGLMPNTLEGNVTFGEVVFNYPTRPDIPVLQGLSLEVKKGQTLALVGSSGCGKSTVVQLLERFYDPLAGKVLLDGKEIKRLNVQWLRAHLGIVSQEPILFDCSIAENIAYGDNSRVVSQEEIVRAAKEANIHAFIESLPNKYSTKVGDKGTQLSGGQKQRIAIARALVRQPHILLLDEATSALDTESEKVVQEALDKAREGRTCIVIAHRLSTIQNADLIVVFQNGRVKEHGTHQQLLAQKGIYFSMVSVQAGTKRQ
Procedure: Briefly, MDCKII-ABCB1 and MDCKII parent cells were seeded at 1.5×10^5 cells per well on a 12-well plate 24 h before the experiment. The medium was removed and the cells were washed with prewarmed PBS. The cells were then preincubated in Opti-MEM, with or without CDKi or LY at 37°C in 5% CO2 for 30 min. […] Accumulation was stopped by cooling the samples on ice, removing the medium and washing twice with ice-cold PBS. The cells were then detached from the plates with 10× trypsin-EDTA, resuspended in PBS with 2% FBS and transferred to Eppendorf tubes, which were placed on ice until analysis. […] The median fluorescence (MF) intensity of 10,000 measured cells was used to compare the fluorescence resulting from each of the treatments. […] The MF intensity of untreated cells was subtracted from fluorescence values obtained for all the measured samples.
To quantify the inhibitory effect of each tested compound on the ABCB1 transporter in the MDCKII-ABCB1 cell line, the ratio between the MF intensity with or without inhibitor was calculated and normalized to the effect in the parental MDCKII cell line according to the following equation [30]: [drawing 1]

ABCB1 [4] = biological target: T1, ABCB1; experiment: ABCB1-ATPase activation assay (baseline), Sf9 membranes; assay type: biochemical; set-up: purchased Solvo Biotechnology (Szeged, Hungary); host or cells: Sf9 insect cell membranes; details: from ATPase activity in Sf9 membranes overexpressing human ABCB1
Procedure: as §1

ABCB1 transporter [5] = biological target: T2, ABCB1 transporter; experiment: HOE (Hoechst 33342) accumulation in MDCKII-ABCB1 cells; assay type: cell-based; details: 8 µM HOE, end-point fluorescence at 30 min, 50% of each compound's own maximum inhibitory activity, read-out: IC50, inhibition of ABCB1-mediated efflux of HOE
Procedure: as §2, §3

mouse P-glycoprotein = test system: mouse P-glycoprotein; set-up: method as in PMID 15338193; details: cited from earlier work
HCT-8 cells = experiment: XTT cytotoxicity, CDKi + DNR combination (Chou-Talalay); details: HCT-8, 72 h
Procedure: (§4) 1×10^4 MDCKII-ABCB1, 1×10^4 MDCKII parent, 2×10^4 HCT-8, or 2×10^4 HepG2 cells were grown in 96-well culture plates and incubated for 24 h. Individual CDKi diluted with growth medium were added to the exponentially growing cells and the resulting mixtures were incubated for 72 h at 37°C, 5% CO2. Cytotoxicity was then assessed using the XTT assay as follows: cells were incubated with 0.167 mg/mL XTT and 4 µM PMS in Opti-MEM for 2 h. The absorbance of the soluble formazan released was measured at 470 nm on a microplate reader (Tecan, Männedorf, Switzerland).
(§5) The combination index (CI) method of Chou-Talalay, based on the median-effect equation, was used to calculate combined drug effects. This approach offers quantitative definitions for additive, synergistic and antagonistic effects (CI values of 0.9–1.1, <0.9, and >1.1, respectively). Combination experiments were performed in a constant-ratio experimental design as recommended for the most efficient data analysis, and the generated data were used to quantify dose-reduction indices (DRI) for pairs of the tested drugs. DRI represents the fold-change of a focal effect when individual agents are used simultaneously relative to their separate effects, and their activity is synergistic if DRI > 1. […] The data acquired from these drug combination experiments were analyzed using CompuSyn ver. 3.0.1 software (ComboSyn Inc., Paramus, NJ, USA).

ABCG2 = test system: ABCG2; set-up: method as in PMID 22173067, PMID 24116053; details: in vitro and in situ; cited from earlier work
HepG2 cells = experiment: XTT cytotoxicity, CDKi + DNR combination (Chou-Talalay); assay type: cell-based, human; details: HepG2, 72 h
Procedure: as §4, §5

MDCKII-ABCB1 cells = experiment: as above; assay type: cell-based; details: MDCKII-ABCB1, 72 h
Procedure: as §4, §5

MDCKII parent cells = experiment: as above; assay type: cell-based; details: 72 h
Procedure: as §4, §5

[6] = CDKi combined with DNR at constant ratio

T1 sequence (P08183 whole entry): as above

CC(C)(C)c1cnc(CSc2cnc(NC(=O)C3CCNCC3)s2)o1 [SNS-032]
Effect on verapamil-stimulated vanadate-sensitive ATPase activity of ABCB1 (ABCB1 [1]): only slightly reduced it at the highest tested concentration | inhibition at 30 min (ABCB1 [2]): 23% | Inhibition of DNR efflux/accumulation across applied range (ABCB1 transporter [3]; 1 - 20 µM CDKi): did not inhibit DNR accumulation at any tested concentration | ABCB1 substrate classification (ABCB1 [4]): non-substrates of ABCB1 | IC50 (ABCB1 transporter [5]): 14.6 µM | Substrate of mouse P-glycoprotein (brain levels Abcb1 knockout vs wild type mice) (mouse P-glycoprotein): substrate of mouse P-glycoprotein

CC(C)[C@H](CO)Nc1nc(Nc2cccc(Cl)c2)c2ncn(C(C)C)c2n1 [purvalanol A]
Fa at which combination with DNR shows synergistic cytotoxic effects (HCT-8 cells; constant ratio): > 0.75 | DRI at Fa 0.75, drug II (CDKi) (HCT-8 cells; [6]): 1.77±0.01 | DRI at Fa 0.9, drug II (CDKi) (HCT-8 cells; [6]): 1.68±0.05 | ABCG2 inhibition (ABCG2): can inhibit ABCG2 in vitro and in situ | Effect on verapamil-stimulated vanadate-sensitive ATPase activity of ABCB1 (ABCB1 [1]): considerably and dose-dependently reduced | inhibition at 30 min (ABCB1 [2]): 86% | ABCB1 inhibition (DNR efflux) (ABCB1 transporter [3]; 20 µM CDKi): significant (P<0.05) ABCB1 inhibition | ABCB1 substrate classification (ABCB1 [4]): non-substrates of ABCB1 | IC50 (ABCB1 transporter [5]): 12.1 µM | Fa values for synergism of combination with DNR (HepG2 cells; constant ratio): 0.9 | DRI at Fa 0.9, drug II (CDKi) (HepG2 cells; [6]): 1.68±0.03 | Combination index (CI) category, combination with DNR (MDCKII-ABCB1 cells; constant ratio): synergistic category of drug combination effects across almost the whole fraction of cells affected (Fa) range | DRI at Fa 0.5, drug II (CDKi) (MDCKII-ABCB1 cells; [6]): 4.03±0.08 | DRI at Fa 0.75, drug II (CDKi) (MDCKII-ABCB1 cells; [6]): 3.73±0.06 | DRI at Fa 0.9, drug II (CDKi) (MDCKII-ABCB1 cells; [6]): 3.45±0.04 | DRI at Fa 0.5, drug II (CDKi) (MDCKII parent cells; [6]): 2.41±0.03 | DRI at Fa 0.75, drug II (CDKi) (MDCKII parent cells; [6]): 2.40±0.04 | DRI at Fa 0.9, drug II (CDKi) (MDCKII parent cells; [6]): 2.39±0.06 | Fa above which combination with DNR is synergistic (MDCKII parent cells; constant ratio): exceeded 0.4
